From US20130157954A1, “METHODS FOR TREATMENT OR PROPHYLAXIS OF KIDNEY OR LIVER DYSFUNCTION” (NPS PHARMACEUTICALS, INC., priority 2010, published 2013)

Assay: Example 1: kidney biomarkers (urea nitrogen, creatinine, GFR) in short bowel syndrome patients, every four weeks for 24 weeks; also sorted by >5% change from baseline
Assay type: in vivo, Human
Design: CREATININE (RATE BLANKED) Change from Baseline Median / GFR Median / GFR Change from Baseline Median / UREA NITROGEN Median / UREA NITROGEN Change from Baseline Median: unit not given here
Conditions: 0.05 mg/kg/day
Description: Human patients with short bowel syndrome were divided into three groups: a control group (16 total individuals) to receive placebo, an experimental group (35 total individuals) to receive teduglutide at 0.05 mg/kg/day throughout the study, and an experimental group (32 total individuals) to receive teduglutide at 0.1 mg/kg/day throughout the study. Patients were treated by subcutaneous injection of placebo or the appropriate dose of teduglutide. As individuals with short bowel syndrome are likely to experience associated liver and kidney disease, known biomarkers of liver and kidney function were monitored every four weeks, for 24 weeks. The liver biomarkers tested included total bilirubin, ALT and AST and ALP. The kidney biomarkers tested included urea nitrogen, creatinine and GFR. Before administration of placebo or teduglutide, diagnostic biomarker levels were tested to establish a baseline for each individual.
To visualize the effect of GLP-2 on the levels of the diagnostic biomarkers, the average change from baseline was calculated for the placebo and teduglutide treated groups for each visit after a baseline was established. The average change from baseline of each group is depicted in FIGS. 1-7. The numerical figures for each diagnostic biomarker at each time point are depicted in Table 1.
The raw data for this sorting is reproduced in Table 2 below.

CC[C@H](C)[C@H](NC(=O)[C@H](Cc1ccccc1)NC(=O)[C@H](CC(=O)O)NC(=O)[C@H](CCCNC(=N)N)NC(=O)[C@H](C)NC(=O)[C@H](C)NC(=O)[C@H](CC(C)C)NC(=O)[C@H](CC(N)=O)NC(=O)[C@H](CC(=O)O)NC(=O)[C@H](CC(C)C)NC(=O)[C@@H](NC(=O)[C@@H](NC(=O)[C@H](CC(N)=O)NC(=O)[C@H](CCSC)NC(=O)[C@H](CCC(=O)O)NC(=O)[C@H](CC(=O)O)NC(=O)[C@H](CO)NC(=O)[C@H](Cc1ccccc1)NC(=O)[C@H](CO)NC(=O)CNC(=O)[C@H](CC(=O)O)NC(=O)CNC(=O)[C@@H](N)Cc1c[nH]cn1)[C@@H](C)O)[C@@H](C)CC)C(=O)N[C@@H](CC(N)=O)C(=O)N[C@@H](Cc1c[nH]c2ccccc12)C(=O)N[C@@H](CC(C)C)C(=O)N[C@H](C(=O)N[C@@H](CCC(N)=O)C(=O)N[C@H](C(=O)N[C@@H](CCCCN)C(=O)N[C@H](C(=O)N[C@H](C(=O)N[C@@H](CC(=O)O)C(=O)O)[C@@H](C)O)[C@@H](C)CC)[C@@H](C)O)[C@@H](C)CC [teduglutide]
CREATININE (RATE BLANKED) Change from Baseline Median (DW4): 1.5
CREATININE (RATE BLANKED) Median (DW4): 80 µmol/L
GFR Change from Baseline Median (DW4): −0.6
GFR Median (DW4): 77.0
UREA NITROGEN Change from Baseline Median (DW4): −0.4
UREA NITROGEN Median (DW4): 4.9
CREATININE (RATE BLANKED) Change from Baseline Median (DW8): 0.0
CREATININE (RATE BLANKED) Median (DW8): 71 µmol/L
GFR Change from Baseline Median (DW8): 1.1
UREA NITROGEN Change from Baseline Median (DW8): −0.3
UREA NITROGEN Median (DW8): 5.2
CREATININE (RATE BLANKED) Change from Baseline Median (DW12): 8.0
CREATININE (RATE BLANKED) Median (DW12): 80 µmol/L
GFR Change from Baseline Median (DW12): −5.0
UREA NITROGEN Change from Baseline Median (DW12): −0.5
UREA NITROGEN Median (DW12): 4.4
CREATININE (RATE BLANKED) Change from Baseline Median (DW16): 0.0
CREATININE (RATE BLANKED) Median (DW16): 79 µmol/L
GFR Change from Baseline Median (DW16): 0.9
UREA NITROGEN Change from Baseline Median (DW16): −0.3
UREA NITROGEN Median (DW16): 4.4
CREATININE (RATE BLANKED) Change from Baseline Median (DW20): 0.0
GFR Change from Baseline Median (DW20): 0.9
GFR Median (DW20): 74.0
UREA NITROGEN Change from Baseline Median (DW20): −0.3
UREA NITROGEN Median (DW20): 5.2
CREATININE (RATE BLANKED) Change from Baseline Median (DW 24): −0.5
CREATININE (RATE BLANKED) Median (DW 24): 80 µmol/L
GFR Change from Baseline Median (DW 24): 1.7
UREA NITROGEN Change from Baseline Median (DW 24): −0.7
UREA NITROGEN Median (DW 24): 4.9
CREATININE (RATE BLANKED) change from baseline <−5%, number of patients (week 4): 7
CREATININE (RATE BLANKED) change from baseline <−5%, percent of patients (week 4): (20.0%)
CREATININE (RATE BLANKED) change from baseline >5%, number of patients (week 4): 14
CREATININE (RATE BLANKED) change from baseline >5%, percent of patients (week 4): (40.0%)
CREATININE (RATE BLANKED) change from baseline −5% <= and <=5%, number of patients (week 4): 9
CREATININE (RATE BLANKED) change from baseline −5% <= and <=5%, percent of patients (week 4): (25.7%)
GFR change from baseline <−5%, number of patients (week 4): 13
GFR change from baseline <−5%, percent of patients (week 4): (37.1%)
GFR change from baseline >5%, number of patients (week 4): 8
GFR change from baseline >5%, percent of patients (week 4): (22.9%)
GFR change from baseline −5% <= and <=5%, number of patients (week 4): 9
GFR change from baseline −5% <= and <=5%, percent of patients (week 4): (25.7%)
UREA NITROGEN change from baseline <−5%, number of patients (week 4): 16
UREA NITROGEN change from baseline <−5%, percent of patients (week 4): (45.7%)
UREA NITROGEN change from baseline >5%, number of patients (week 4): 7
UREA NITROGEN change from baseline >5%, percent of patients (week 4): (20.0%)
UREA NITROGEN change from baseline −5% <= and <=5%, number of patients (week 4): 7
UREA NITROGEN change from baseline −5% <= and <=5%, percent of patients (week 4): (20.0%)
CREATININE (RATE BLANKED) change from baseline <−5%, number of patients (week 8): 11
CREATININE (RATE BLANKED) change from baseline <−5%, percent of patients (week 8): (31.4%)
CREATININE (RATE BLANKED) change from baseline >5%, number of patients (week 8): 10
CREATININE (RATE BLANKED) change from baseline >5%, percent of patients (week 8): (28.6%)
CREATININE (RATE BLANKED) change from baseline −5% <= and <=5%, number of patients (week 8): 8
CREATININE (RATE BLANKED) change from baseline −5% <= and <=5%, percent of patients (week 8): (22.9%)
GFR change from baseline <−5%, number of patients (week 8): 9
GFR change from baseline <−5%, percent of patients (week 8): (25.7%)
GFR change from baseline >5%, number of patients (week 8): 12
GFR change from baseline >5%, percent of patients (week 8): (34.3%)
GFR change from baseline −5% <= and <=5%, number of patients (week 8): 7
GFR change from baseline −5% <= and <=5%, percent of patients (week 8): (20.0%)
UREA NITROGEN change from baseline <−5%, number of patients (week 8): 14
UREA NITROGEN change from baseline <−5%, percent of patients (week 8): (40.0%)
UREA NITROGEN change from baseline >5%, number of patients (week 8): 10
UREA NITROGEN change from baseline >5%, percent of patients (week 8): (28.6%)
UREA NITROGEN change from baseline −5% <= and <=5%, number of patients (week 8): 5
UREA NITROGEN change from baseline −5% <= and <=5%, percent of patients (week 8): (14.3%)
CREATININE (RATE BLANKED) change from baseline <−5%, number of patients (week 12): 7
CREATININE (RATE BLANKED) change from baseline <−5%, percent of patients (week 12): (20.0%)
